Experimental data: PubChem BioAssay AID1259407 (Chemical Carcinogenesis Research Information System (CCRIS), 2018)
Active and inactive are the calls of the source. How the calls were made is not given here.

System: CCRIS mutagenicity, Ames/micronucleus/aberration tests
Assay: CCRIS mutagenicity studies
[1] = Test System: AMES SALMONELLA TYPHIMURIUM, Strain/Indicator: TA98, Metabolic Activation: NONE, Method: PREINCUBATION
[2] = Test System: AMES SALMONELLA TYPHIMURIUM, Strain/Indicator: TA98, Metabolic Activation: NONE, Method: STANDARD PLATE
[3] = Test System: AMES SALMONELLA TYPHIMURIUM, Strain/Indicator: TA100, Metabolic Activation: NONE, Method: PREINCUBATION
[4] = Test System: AMES SALMONELLA TYPHIMURIUM, Strain/Indicator: TA100, Metabolic Activation: NONE, Method: STANDARD PLATE

CCCCC(CC)COC(=O)CCCCC(=O)O (centres undefined)
mutagenic call (Test System: AMES SALMONELLA TYPHIMURIUM, Strain/Indicator: TA97, Metabolic Activation: NONE, Method: STANDARD PLATE): inactive; negative
mutagenic call (Test System: AMES SALMONELLA TYPHIMURIUM, Strain/Indicator: TA97, Metabolic Activation: RAT, LIVER, S-9, AROCLOR 1254, Method: STANDARD PLATE): inactive; negative
mutagenic call (Test System: AMES SALMONELLA TYPHIMURIUM, Strain/Indicator: TA97, Metabolic Activation: RAT, LIVER, S-9, DI(2-ETHYLHEXYL)PHTHALATE, Method: STANDARD PLATE): inactive; negative
mutagenic call (Test System: AMES SALMONELLA TYPHIMURIUM, Strain/Indicator: TA98, Metabolic Activation: HAMSTER, LIVER, S-9, AROCLOR 1254 (10%), Method: PREINCUBATION): inactive; negative
mutagenic call [1]: inactive; negative
mutagenic call [2]: inactive; negative
mutagenic call (Test System: AMES SALMONELLA TYPHIMURIUM, Strain/Indicator: TA98, Metabolic Activation: RAT, LIVER, S-9, AROCLOR 1254 (10%), Method: PREINCUBATION): inactive; negative
mutagenic call (Test System: AMES SALMONELLA TYPHIMURIUM, Strain/Indicator: TA98, Metabolic Activation: RAT, LIVER, S-9, AROCLOR 1254, Method: STANDARD PLATE): inactive; negative
mutagenic call (Test System: AMES SALMONELLA TYPHIMURIUM, Strain/Indicator: TA98, Metabolic Activation: RAT, LIVER, S-9, DI(2-ETHYLHEXYL)PHTHALATE, Method: STANDARD PLATE): inactive; negative
mutagenic call (Test System: AMES SALMONELLA TYPHIMURIUM, Strain/Indicator: TA100, Metabolic Activation: HAMSTER, LIVER, S-9, AROCLOR 1254 (10%), Method: PREINCUBATION): inactive; negative
mutagenic call [3]: inactive; negative
mutagenic call [4]: inactive; negative
mutagenic call (Test System: AMES SALMONELLA TYPHIMURIUM, Strain/Indicator: TA100, Metabolic Activation: RAT, LIVER, S-9, AROCLOR 1254 (10%), Method: PREINCUBATION): inactive; negative
mutagenic call (Test System: AMES SALMONELLA TYPHIMURIUM, Strain/Indicator: TA100, Metabolic Activation: RAT, LIVER, S-9, AROCLOR 1254, Method: STANDARD PLATE): inactive; negative
mutagenic call (Test System: AMES SALMONELLA TYPHIMURIUM, Strain/Indicator: TA100, Metabolic Activation: RAT, LIVER, S-9, DI(2-ETHYLHEXYL)PHTHALATE, Method: STANDARD PLATE): inactive; negative
mutagenic call (Test System: AMES SALMONELLA TYPHIMURIUM, Strain/Indicator: TA102, Metabolic Activation: NONE, Method: STANDARD PLATE): inactive; negative
mutagenic call (Test System: AMES SALMONELLA TYPHIMURIUM, Strain/Indicator: TA102, Metabolic Activation: RAT, LIVER, S-9, AROCLOR 1254, Method: STANDARD PLATE): inactive; negative
mutagenic call (Test System: AMES SALMONELLA TYPHIMURIUM, Strain/Indicator: TA102, Metabolic Activation: RAT, LIVER, S-9, DI(2-ETHYLHEXYL)PHTHALATE, Method: STANDARD PLATE): inactive; negative
mutagenic call (Test System: AMES SALMONELLA TYPHIMURIUM, Strain/Indicator: TA1535, Metabolic Activation: HAMSTER, LIVER, S-9, AROCLOR 1254 (10%), Method: PREINCUBATION): inactive; negative
mutagenic call (Test System: AMES SALMONELLA TYPHIMURIUM, Strain/Indicator: TA1535, Metabolic Activation: NONE, Method: PREINCUBATION): inactive; negative
mutagenic call (Test System: AMES SALMONELLA TYPHIMURIUM, Strain/Indicator: TA1535, Metabolic Activation: RAT, LIVER, S-9, AROCLOR 1254 (10%), Method: PREINCUBATION): inactive; negative
mutagenic call (Test System: AMES SALMONELLA TYPHIMURIUM, Strain/Indicator: TA1537, Metabolic Activation: HAMSTER, LIVER, S-9, AROCLOR 1254 (10%), Method: PREINCUBATION): inactive; negative
mutagenic call (Test System: AMES SALMONELLA TYPHIMURIUM, Strain/Indicator: TA1537, Metabolic Activation: NONE, Method: PREINCUBATION): inactive; negative
mutagenic call (Test System: AMES SALMONELLA TYPHIMURIUM, Strain/Indicator: TA1537, Metabolic Activation: RAT, LIVER, S-9, AROCLOR 1254 (10%), Method: PREINCUBATION): inactive; negative

COc1nc(N)nc2c1ncn2[C@H]1C[C@H](O)[C@@H](COP(=O)(O)OP(=O)(O)OP(=O)(O)O)O1
mutagenic call (Test System: CHINESE HAMSTER OVARY, Strain/Indicator: CHO-K1 (HGPRT), Metabolic Activation: NONE): inactive; negative

COc1ccc2c(c1)-c1nccc3cc(OC)c(OC)c(c13)C2=O
mutagenic call (Test System: AMES SALMONELLA TYPHIMURIUM, Strain/Indicator: TA98, Metabolic Activation: RAT, LIVER, S-9, PHENOBARBITAL AND BETA-NAPHTHOFLAVONE, Method: PREINCUBATION): active; positive

CCc1cccc(NC(=O)c2csc([N+](=O)[O-])c2)c1
mutagenic call [2]: active; positive
mutagenic call [4]: active; positive

CCSc1cc(Cc2ccc(N)c(SCC)c2)ccc1N
mutagenic call [1]: inactive; negative
mutagenic call (Test System: AMES SALMONELLA TYPHIMURIUM, Strain/Indicator: TA98, Metabolic Activation: RAT, LIVER, S-9, PCB, Method: PREINCUBATION): active; positive
mutagenic call [3]: inactive; negative
mutagenic call (Test System: AMES SALMONELLA TYPHIMURIUM, Strain/Indicator: TA100, Metabolic Activation: RAT, LIVER, S-9, PCB, Method: PREINCUBATION): active; positive

Cc1cc(O)ccc1N
mutagenic call (Test System: MOUSE LYMPHOMA, Strain/Indicator: L5178Y (TK+/TK-), Metabolic Activation: NONE, Method: SUSPENSION/PLATE): active; positive. reevaluation of results: equivocal
mutagenic call (Test System: MOUSE LYMPHOMA, Strain/Indicator: L5178Y (TK+/TK-), Metabolic Activation: RAT, LIVER, S-9, AROCLOR 1254, Method: SUSPENSION/PLATE): inactive; negative. reevaluation of results: inconclusive
